Laboratory results as given in publication PMC10709440, “High-throughput ligand profile characterization in novel cell lines expressing seven heterologous insect olfactory receptors for the detection of volatile plant biomarkers” (Scientific Reports, 2023).
Like-named read-outs stand apart in the source and are kept apart here.

Key:
[1] = molecular target: T1, Drosophila OR85b (Drosophila melanogaster, UniProt Q9VHQ7); assay: Calcium ion fluorescence (GCaMP6) assay, OR85b stable HEK293 cell line; type: cell-based; conditions: for Average response: VUAA1-normalized response, mean of biological replicates
T1 construct: expressed in transfected cells
T1 sequence (Q9VHQ7 1-390): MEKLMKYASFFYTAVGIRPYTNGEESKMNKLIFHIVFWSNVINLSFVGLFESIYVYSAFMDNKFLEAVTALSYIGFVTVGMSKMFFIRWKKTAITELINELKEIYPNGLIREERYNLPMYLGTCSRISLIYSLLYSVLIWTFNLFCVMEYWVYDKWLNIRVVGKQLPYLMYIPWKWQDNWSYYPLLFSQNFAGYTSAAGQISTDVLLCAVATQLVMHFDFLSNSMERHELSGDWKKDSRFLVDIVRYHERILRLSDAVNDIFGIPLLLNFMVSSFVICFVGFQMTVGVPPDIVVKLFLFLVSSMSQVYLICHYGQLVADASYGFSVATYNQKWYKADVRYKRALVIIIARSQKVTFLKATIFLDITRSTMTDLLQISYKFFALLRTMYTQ
T1 sequence (Q9VNB5 1-486 partner): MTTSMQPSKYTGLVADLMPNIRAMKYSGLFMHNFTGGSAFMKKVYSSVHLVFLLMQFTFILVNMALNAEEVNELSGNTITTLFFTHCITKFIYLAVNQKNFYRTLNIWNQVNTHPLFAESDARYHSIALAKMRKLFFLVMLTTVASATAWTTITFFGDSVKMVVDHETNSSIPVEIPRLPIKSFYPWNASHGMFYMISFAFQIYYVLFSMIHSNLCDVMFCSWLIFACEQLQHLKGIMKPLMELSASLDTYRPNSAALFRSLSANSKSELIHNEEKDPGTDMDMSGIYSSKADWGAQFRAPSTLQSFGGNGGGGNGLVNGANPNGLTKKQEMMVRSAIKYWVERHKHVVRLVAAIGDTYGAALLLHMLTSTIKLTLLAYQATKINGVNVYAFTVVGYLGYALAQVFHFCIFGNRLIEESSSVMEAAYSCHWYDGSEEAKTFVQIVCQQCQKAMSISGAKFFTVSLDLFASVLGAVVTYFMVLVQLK
Experimental: These VUAA1 normalized ∆F values were used to compare the different receptors and ligands.
The concentration-dependent effect of the reference ligands on their cognate cell lines was examined in more detail. Twelve different ligand concentrations were measured on each cell line in an overall 0.01 μM to 100 μM concentration range with 5 repetitions with three technical replicates each time.
Twelve thousand to 18,000 cells were plated into each well of a black wall, transparent bottom 384-well microplate (Greiner) 48 h or 72 h before the measurements and were simultaneously treated with 1 μg/mL doxycycline. […] The plate has 24 columns, thus we could record responses in up to eight different cell lines in each plate. On the day of the experiment, the growth medium was replaced with 20 µL assay buffer/well (140 mM NaCl, 5 mM KCl, 2 mM CaCl2, 1 mM MgCl2, 5 mM HEPES-Na, 20 mM glucose, pH 7.3, 340 mOsm). […] Baseline fluorescence (F0) was recorded for 5 s, after which 7 µL VOC buffer (140 mM NaCl, 5 mM KCl, 2 mM CaCl2, 1 mM MgCl2, 5 mM HEPES-Na, 31 mM glucose, 0.1% DMSO, pH 7.3, 340 mOsm) was injected into each well in one row and the fluorescence response was recorded for an additional 30 s, at a rate of one read/sec. VOC solutions (VOC buffer with 4× concentration of the final measured VOC concentration, 9 µL/well was injected) were measured on the same wells in a second round with the same protocol. Each individual concentration of a specific VOC sample was recorded in three wells for the same cell line on the same microplate. The raw data were exported in xls file format, F0 and FMAX values, and the fluorescence intensity changes (∆F) were calculated in Excel (Microsoft) (Supplementary file Data summary.xlsx) using the following equation: ΔF=FMAX-F0/F0 (see also Fig. 1C). On each plate, we recorded the response of each cell line to 50 µM VUAA1. The average of these ∆F values of each cell line were used to calculate the VUAA1-normalized values for the rest of the plate, by dividing VOC response ∆F values by the average VUAA1 response ∆F value of the corresponding OR cell line. Each VOC-OR combination was measured three times as technical replicates. […] The average of these replicates were used as one ∆F and VUAA1-normalized ∆F in the following analysis.
In the next rows we tested the reference VOCs (or other VOCs known to activate the corresponding cell lines), in order to test if all cell lines are responsive. The remaining rows were used to test VOCs with unknown effect.
The recorded FMAX, F0, ∆F, VUAA1-normalized ∆F values, as well as the OR name, the name of the tested sample, and the final concentration for each well were copied into supplementary file Data summary.xlsx, that was used to summarize all the plates recorded. Here, the averages of the measurements were calculated for each receptor-VOC-concentration combination.

[2] = system: OR13a; parameters: method as in earlier work; conditions: DoOR database value, ref DoOR, cited from earlier work
[3] = system: OR47a; parameters: method as in earlier work; conditions: DoOR database value; ref DoOR; cited from earlier work
[4] = system: OR10a; parameters: method as in earlier work; conditions: DoOR database value, ref DoOR, cited from earlier work
[5] = system: OR49b; parameters: method as in earlier work; conditions: DoOR database value; ref DoOR; cited from earlier work
[6] = system: OR85b; parameters: method as in earlier work; conditions: DoOR database value; ref DoOR; cited from earlier work
[7] = system: OR98a; parameters: method as in earlier work; conditions: DoOR database value; ref DoOR; cited from earlier work
[8] = HEK293, read-out: OR85b response (VUAA1-normalized response)
[9] = concentration 1, normalized fluorescence change, values below 0.05 threshold given as 0
[10] = concentration 10, normalized fluorescence change, values below 0.05 threshold given as 0
[11] = concentration 100, normalized fluorescence change, values below 0.05 threshold given as 0
[12] = ligand concentration 1 (unit not given), threshold 0.05, below shown as 0
[13] = ligand concentration 10 (unit not given), threshold 0.05, below shown as 0
[14] = ligand concentration 100 (unit not given), threshold 0.05, below shown as 0
[15] = HEK293, read-out: OR85b Average response (VUAA1-normalized)

Row | SMILES | activation at 1 µM [1, 8] [%] | activation at 10 µM [1, 8] [%] | activation at 100 µM [1, 8] [%] | Average response ([1]; OR85b cell line, cc. 1 µM) | Average response ([1]; OR85b cell line, cc. 10 µM) | Average response ([1]; OR85b cell line, cc. 100 µM) | DF norm AVERAGE OR85b [1, 9] | DF norm AVERAGE OR85b [1, 10] | DF norm AVERAGE OR85b [1, 11] | OR13a DoOR response [2] | OR47a DoOR response [3] | OR10a DoOR response [4] | OR49b DoOR response [5] | OR85b DoOR response [6] | OR98a DoOR response [7] | other results
1 | CCCCCCCO [1-heptanol] | 0 | 0 | 0 | 0.00 | 0.00 | 0.00 | 0 | 0 | 0 | 0.28 | 0.095 |  |  |  |  | 
2 | CCCCC(C)O (stereo not shown) [2-hexanol] | 0 | 0 | 0 | 0.05 | 0.00 | 0.00 | 0 | 0 | 0 | 0.58 |  | 0.14 |  |  |  | 
3 | CC/C=C\CCOC(C)=O [Z-3-hexenyl acetate] |  |  |  |  |  |  |  |  |  |  |  |  |  |  |  | OR85b response (VUAA1-normalized) at 1 μM ([1]; OR85b cell line, VOC concentration 1 μM): 0.15; OR85b response (VUAA1-normalized) at 10 μM ([1]; OR85b cell line, VOC concentration 10 μM): 0.00; OR85b response (VUAA1-normalized) at 100 μM ([1]; OR85b cell line, VOC concentration 100 μM): 0.00; OR10a DoOR response ([4]; OR10a): 0.004; OR13a DoOR response ([2]; OR13a): 0.42
4 | CCCCC(C)=O [2-hexanone] | 0 | 6 | 0 | 0.00 | 0.06 | 0.0338 | 0 | 0.05777 | 0 | 0.13 |  | 0.10 |  |  |  | 
5 | CC1=CCC2C(C1)C2(C)C (stereo not shown) [3-carene] | 0 | 0 | 0 | 0.00 | 0.00 | 0.00 | 0 | 0 | 0 |  | -0.002 | -0.005 | 0.002 | -0.008 | -0.009 | 
6 | C=C(C)[C@H]1CC=C(C)CC1 [(R)-(+)-limonene] |  |  |  | 0.0426 | 0.03 | 0.00 | 0 | 0 | 0 | 0.057 |  | 0.07 | 0.03 | 0.034 | 0.085 | OR85b response (VUAA1-normalized response) ([1]; VOC concentration 1 μM): 0.00; OR85b response (VUAA1-normalized response) ([1]; VOC concentration 10 μM): 0.00; OR85b response (VUAA1-normalized response) ([1]; VOC concentration 100 μM): 0.00
7 | CC(=O)OCC(C)C [isobutyl acetate] | 0 | 0 | 0 | 0.044 | 0.00 | 0.03 |  |  |  |  | 0.58 | 0.35 | 0.006 | 0.39 | 0.67 | DF norm AVERAGE OR85b [1, 12]: 0; DF norm AVERAGE OR85b [1, 13]: 0; DF norm AVERAGE OR85b [1, 14]: 0
8 | CCCCCC(C)O (stereo not shown) [2-heptanol] | 0 | 0 | 32 | 0.0455 | 0.05 | 0.32 | 0 | 0 | 0.3169 | 0.67 |  | 0.009 |  |  |  | activation at 1 µM [1, 15]: 5%; activation at 10 µM [1, 15]: 5%; activation at 100 µM [1, 15]: 32%
9 | CC/C=C\CCO [E-3-hexenol] |  |  |  |  |  |  |  |  |  |  | 0.065 | 0.04 | 0.057 | 0.75 | 0.44 | OR85b response (VUAA1-normalized response) ([1]; VOC concentration 1 μM): 0.00; OR85b response (VUAA1-normalized response) ([1]; VOC concentration 10 μM): 0.00; OR85b response (VUAA1-normalized response) ([1]; VOC concentration 100 μM): 0.00
10 | C=C(C)[C@H]1CC=C(C)CC1 [limonene] |  |  |  | 0.07 | 0.09 | 0.0644 |  |  |  |  | 0.056 | -0.001 | 0.016 | 0.10 | 0.09 | OR85b response (VUAA1-normalized response) ([1]; VOC concentration 1 μM): 0.07; OR85b response (VUAA1-normalized response) ([1]; VOC concentration 10 μM): 0.09; OR85b response (VUAA1-normalized response) ([1]; VOC concentration 100 μM): 0.0644; DF norm AVERAGE OR85b [1, 12]: 0.07022; DF norm AVERAGE OR85b [1, 13]: 0.08814; DF norm AVERAGE OR85b [1, 14]: 0.06443
11 | C=C1CCC2CC1C2(C)C (stereo not drawn) [beta-pinene] | 0 | 10 | 9 | 0.00 | 0.10 | 0.09 |  |  |  |  | -0.021 | -0.005 | 0.011 | 0.053 | -0.003 | DF norm AVERAGE OR85b [1, 12]: 0; DF norm AVERAGE OR85b [1, 13]: 0.09683; DF norm AVERAGE OR85b [1, 14]: 0.0913
